From PubChem BioAssay AID2060888 (Molecular Pharmacology Branch, DTP, NCI, 2025)

Tested on: 695427-040-R-J1-PDC complex spheroid viability
Experiment: Anticancer human tumor 695427-040-R-J1-PDC patient-derived colon adenocarcinoma cell line growth inhibition [RAS]
Details: for IC50: curve of first compound; for viability, T/C: stronger effect = lower value; active = viability on the fitted dose curve at most 10% of control; inactive = the rest
Summary of the method: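 Multi-cell-type spheroids: tumor cells plus HUVEC endothelial cells and mesenchymal stem cells. RAS-pathway inhibitors were combined with targeted agents, each dosed in half-log steps down from clinical Cmax, or from 10 microM when Cmax was unknown.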
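Also: viability read after seven days of drug exposure.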
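For viability, T/C in this document: 100% = DMSO vehicle control viability.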

CC(C)n1nc(-c2ccc3oc(N)nc3c2)c2c(N)ncnc21 + CCn1c(-c2cc(N3CCN(C)CC3)cnc2C(C)OC)c2c3cc(ccc31)-c1csc(n1)CC(NC(=O)C1CC1C)C(=O)N1CCCC(N1)C(=O)OCC(C)(C)C2
< 0.316 nM: IC50 (second compound 0.0949 µM) | IC50 (second compound 0.3 µM)
71.9 nM: IC50 (second compound 0.000949 µM)
> 100 nM: IC50 (second compound 0.003 µM)
34.2 nM: IC50 (second compound 0.00949 µM)
4.03 nM: IC50 (second compound 0.03 µM)
inactive: viability, T/C (second compound 0.000949 µM, first compound 0.000316 µM) 100% | viability, T/C (second compound 0.000949 µM, first compound 0.001 µM) 86.4% | viability, T/C (second compound 0.000949 µM, first compound 0.00316 µM) 80.3% | viability, T/C (second compound 0.000949 µM, first compound 0.01 µM) 81.2% | viability, T/C (second compound 0.000949 µM, first compound 0.0316 µM) 68.6% | viability, T/C (second compound 0.000949 µM, first compound 0.1 µM) 42% | viability, T/C (second compound 0.003 µM, first compound 0.000316 µM) 98.5% | viability, T/C (second compound 0.003 µM, first compound 0.001 µM) 84.8% | viability, T/C (second compound 0.003 µM, first compound 0.00316 µM) 71.8% | viability, T/C (second compound 0.003 µM, first compound 0.01 µM) 68.1% | viability, T/C (second compound 0.003 µM, first compound 0.0316 µM) 66.5% | viability, T/C (second compound 0.003 µM, first compound 0.1 µM) 51.1% | viability, T/C (second compound 0.00949 µM, first compound 0.000316 µM) 93.3% | viability, T/C (second compound 0.00949 µM, first compound 0.001 µM) 68.5% | viability, T/C (second compound 0.00949 µM, first compound 0.00316 µM) 70% | viability, T/C (second compound 0.00949 µM, first compound 0.01 µM) 59.1% | viability, T/C (second compound 0.00949 µM, first compound 0.0316 µM) 46.4% | viability, T/C (second compound 0.00949 µM, first compound 0.1 µM) 46.8% | viability, T/C (second compound 0.03 µM, first compound 0.000316 µM) 74.3% | viability, T/C (second compound 0.03 µM, first compound 0.001 µM) 45.1% | viability, T/C (second compound 0.03 µM, first compound 0.00316 µM) 55.8% | viability, T/C (second compound 0.03 µM, first compound 0.01 µM) 48.6% | viability, T/C (second compound 0.03 µM, first compound 0.0316 µM) 39.2% | viability, T/C (second compound 0.03 µM, first compound 0.1 µM) 28.7% | viability, T/C (second compound 0.0949 µM, first compound 0.000316 µM) 47.6% | viability, T/C (second compound 0.0949 µM, first compound 0.001 µM) 38.6% | viability, T/C (second compound 0.0949 µM, first compound 0.00316 µM) 35.4% | viability, T/C (second compound 0.0949 µM, first compound 0.01 µM) 32.8% | viability, T/C (second compound 0.0949 µM, first compound 0.0316 µM) 30% | viability, T/C (second compound 0.0949 µM, first compound 0.1 µM) 21.3% | viability, T/C (second compound 0.3 µM, first compound 0.000316 µM) 41% | viability, T/C (second compound 0.3 µM, first compound 0.001 µM) 34.8% | viability, T/C (second compound 0.3 µM, first compound 0.00316 µM) 27.3% | viability, T/C (second compound 0.3 µM, first compound 0.01 µM) 28.2% | viability, T/C (second compound 0.3 µM, first compound 0.0316 µM) 22.6% | viability, T/C (second compound 0.3 µM, first compound 0.1 µM) 15.7%

CCc1c2c(nc3ccc(O)cc13)-c1cc3c(c(=O)n1C2)COC(=O)[C@]3(O)CC + C#Cc1c(F)ccc2cc(O)cc(-c3ncc4c(N5CC6CCC(C5)N6)nc(OCC56CCCN5CC(F)C6)nc4c3F)c12
119 nM: IC50 (second compound 0.0316 µM)
59.7 nM: IC50 (second compound 1 µM)
10.7 nM: IC50 (second compound 3.16 µM)
< 0.949 nM: IC50 (second compound 10 µM)
122 nM: IC50 (second compound 0.1 µM)
inactive: viability, T/C (second compound 0.0316 µM, first compound 0.000949 µM) 89.1% | viability, T/C (second compound 0.0316 µM, first compound 0.003 µM) 89.8% | viability, T/C (second compound 0.0316 µM, first compound 0.00949 µM) 77.9% | viability, T/C (second compound 0.0316 µM, first compound 0.03 µM) 76% | viability, T/C (second compound 0.0316 µM, first compound 0.0949 µM) 53.5% | viability, T/C (second compound 0.0316 µM, first compound 0.3 µM) 30.4% | viability, T/C (second compound 0.1 µM, first compound 0.000949 µM) 96.1% | viability, T/C (second compound 0.1 µM, first compound 0.003 µM) 86.2% | viability, T/C (second compound 0.1 µM, first compound 0.00949 µM) 78.8% | viability, T/C (second compound 0.1 µM, first compound 0.03 µM) 72.2% | viability, T/C (second compound 0.1 µM, first compound 0.0949 µM) 58.7% | viability, T/C (second compound 0.1 µM, first compound 0.3 µM) 28.6% | viability, T/C (second compound 0.316 µM, first compound 0.000949 µM) 82% | viability, T/C (second compound 0.316 µM, first compound 0.003 µM) 79.9% | viability, T/C (second compound 0.316 µM, first compound 0.00949 µM) 70.7% | viability, T/C (second compound 0.316 µM, first compound 0.03 µM) 67.1% | viability, T/C (second compound 0.316 µM, first compound 0.0949 µM) 49.4% | viability, T/C (second compound 0.316 µM, first compound 0.3 µM) 25.7% | viability, T/C (second compound 1 µM, first compound 0.000949 µM) 73.8% | viability, T/C (second compound 1 µM, first compound 0.003 µM) 66.1% | viability, T/C (second compound 1 µM, first compound 0.00949 µM) 60.1% | viability, T/C (second compound 1 µM, first compound 0.03 µM) 59.8% | viability, T/C (second compound 1 µM, first compound 0.0949 µM) 45.8% | viability, T/C (second compound 1 µM, first compound 0.3 µM) 27.2% | viability, T/C (second compound 3.16 µM, first compound 0.000949 µM) 54.3% | viability, T/C (second compound 3.16 µM, first compound 0.003 µM) 52% | viability, T/C (second compound 3.16 µM, first compound 0.00949 µM) 48.7% | viability, T/C (second compound 3.16 µM, first compound 0.03 µM) 46% | viability, T/C (second compound 3.16 µM, first compound 0.0949 µM) 40.1% | viability, T/C (second compound 3.16 µM, first compound 0.3 µM) 24.9% | viability, T/C (second compound 10 µM, first compound 0.000949 µM) 37.4% | viability, T/C (second compound 10 µM, first compound 0.003 µM) 36.5% | viability, T/C (second compound 10 µM, first compound 0.00949 µM) 36.8% | viability, T/C (second compound 10 µM, first compound 0.03 µM) 28.1% | viability, T/C (second compound 10 µM, first compound 0.0949 µM) 26.2% | viability, T/C (second compound 10 µM, first compound 0.3 µM) 17.2%
93.3 nM: IC50 (second compound 0.316 µM)
